# From a melting point compilation (Tetko et al.; mined from patent text by program, amines drawn as free bases though some values may be those of a salt)
row,SMILES,melting point
1,O=C(Cc1ccc(Oc2ccccc2)cc1)NCCC1=CCCCC1,74 to 75 °C
2,CS(=O)(=O)OCC1(COc2ccc(Br)cc2)COC1,89 to 91 °C
3,CCCC(=O)CC(=O)c1ccc(C2CCC(CC)CC2)cc1 (stereo not given),99 °C
4,CCOc1c(Nc2ccc(C#N)cc2)c(=O)c1=O,218 to 222 °C
5,CC(O)COc1ccc(-c2ccc(C(CC3CCOCC3)c3ccc(S(=O)(=O)C4CC4)cc3)[nH]2)nc1 (stereo not given),116 to 118 °C
6,CC1(C)Oc2ccc(C(=O)CCC(=O)O)cc2NC1=O,226 to 228 °C
7,Cc1cc2c(c(O)c1O)C(=O)c1c(O)cccc1C2=O,239 to 240 °C
8,O=C(c1ccc(-n2ccc(C3CC3)n2)cc1C(F)(F)F)N1Cc2cccn2Cc2ccccc21,163 to 164 °C
9,Cc1cc2c(OCc3ccc(-c4nnn[nH]4)cc3)cccc2o1,196 to 197 °C
10,CC1NC(C#N)=C(C#N)NC1=O (stereo not given),243 to 245 °C
11,[N-]=[N+]=Nc1cc(=O)n(-c2ccccc2)nc1C1=NCCN1,238 to 240 °C
12,CN1CCN(c2ccc(C(=O)N[C@H]3CC[C@H](CCN4CCN(c5nccc6c5OCC6)CC4)CC3)cc2)CC1,236 °C
13,COc1ncnc(-c2cc(NS(C)(=O)=O)c(Cl)cc2Cl)c1C#N,160 to 162 °C
14,COC(=O)c1cc(-c2ccc(C)cc2)n(-c2ccc(S(N)(=O)=O)cc2)n1,138 to 139 °C
15,CC(=O)Nc1ccc2c(c1)C(=O)N(c1ccc3c(ccn3C)c1)C2,275 to 280 °C
16,C[Si](C)(C)C#Cc1cccc2c1C1(c3ccccc3-c3ccccc31)c1ccccc1-2,205 to 206 °C
17,CCc1nc2c(C)cc(C)nc2n1Cc1ccc(C(Cc2nnn[nH]2)c2ccccc2Cl)cc1 (stereo not given),217 to 221 °C
18,Cc1oc(-c2ccccc2)nc1COc1cc(F)cc(CN(O)C(N)=O)c1,157 to 158 °C
19,CCCc1c(CNc2ccc(C(=O)O)cc2)ccc(C(C)=O)c1O,202 to 204 °C
20,COc1cc(NC(=O)Nc2ccccc2C)cc(OC)c1-c1ccc(C[C@H](NC(=O)c2c(Cl)cccc2Cl)C(=O)O)cc1,194 to 195 °C
21,NC(=O)c1cc(N)ccc1SSc1ccc(N)cc1C(N)=O,188 to 190 °C
22,Cc1c(N2CCN(C(C)C)CC2)nn2c(-c3ccnnc3)c(-c3ccc(F)cc3)nc2c1C,222 to 224 °C
23,CC1N=C(c2ccccc2)NC1=O (stereo not given),165 °C
24,CC(C)(C)c1cc(CSCCC(=O)NCCCCCCNC(=O)CCSCc2cc(C(C)(C)C)c(O)c(C(C)(C)C)c2)cc(C(C)(C)C)c1O,126 to 130 °C
25,NC(=O)c1cnc2c(NC(=O)c3c(Cl)cccc3Cl)cccc2c1,> 250 °C

row,SMILES,melting point
1,O=C(O)[C@H]1Oc2ccc(Cl)cc2[C@@H](c2ccccc2)O1 (relative stereo),175 °C
2,CN(c1ccccc1[N+](=O)[O-])S(C)(=O)=O,144 to 145 °C
3,Cc1cc(O)nc(Oc2cc(C(F)(F)F)nn2C)c1,159 °C
4,COC(=O)c1ccc(NC(=O)C(CC(=O)O)c2ccccc2)cc1 (stereo not given),190 °C
5,CCOC(=O)N(c1ccc(C#N)cc1)c1c(NC(C)C(C)(C)C)c(=O)c1=O (stereo not given),158 to 159 °C
6,CCOC(=O)CCC(C)Oc1ccc2c(c1)C(N(CC)S(C)(=O)=O)CC(C)(C)O2 (stereo not given),65 to 67 °C
7,N#CC(=CC=Cc1ccccc1)C(=O)O,196 °C
8,CCN1c2ncccc2C(=S)N(C)c2cccnc21,157 to 158 °C
9,CC1(C)Cc2nc(C3CCCC3)c(C(=O)c3ccc(C(F)(F)F)cc3)c(-c3ccc(F)c(F)c3)c2C(O)C1 (stereo not given),166 to 168 °C
10,CCOCOCCCOn1cnc2cnc(N)nc21,73 to 74 °C
11,O=C(O)Cc1nn(-c2nc3ccccc3s2)c(=O)c2ccccc12,205 °C
12,CCCn1nc2c(N)nc3ccccc3c2c1CCCCN1C(=O)c2ccccc2C1=O,204 to 206 °C
13,CC(C)(C)c1cccc(S(=O)(=O)n2c(CCCC(=O)O)cc3cc(C(F)(F)F)ccc32)c1,135 to 141 °C
14,COc1cc2c(c3c1OC(C)(C)C3)C(c1ccccc1)=NC(C)(C)C2,128 to 129 °C
15,COc1cc(Nc2c(C#N)cnc3cc(-c4ccc(C(=O)O)cc4)ccc23)c(Cl)cc1Cl,282 to 283 °C
16,O=C1CCn2c3c(c4cccc1c42)CCN(C(=O)c1ccccc1)CC3,178 to 181 °C
17,O=C(NCCO)c1cccc(-c2cccc3cc(Cc4cccc(C(F)(F)F)c4)oc23)c1,140 to 141 °C
18,Cc1ccc(S(=O)(=O)N=NCNC[C@@H]2C[C@H](C(=O)O)N(C(=O)OC(C)(C)C)C2)cc1,132 to 133 °C
19,"CC(Cl)COC(C)c1ccc(O)cc1 (single isomer, unassigned; (+))",50 to 51 °C
20,COc1ccc(OC)c2c1C(=O)c1c(C)oc(C)c1C2=O,227 to 228 °C
21,Cc1ccc(-c2cc(C#N)c[nH]2)cc1,169 to 171 °C
22,Cc1ccc(C(=C/C=C/C=O)c2ccc(C)cc2)cc1,92 to 93 °C
23,COC(=O)CC[C@H]1CC[C@@H](NC(=O)N(NC(C)=O)c2ccc(C#N)cc2)CC1,132 to 134 °C
24,O=C(Nc1ccc2c(c1)CSCC2)OCc1ccccc1,109 to 111 °C
25,CC1C(c2ccccc2)NC(c2ccccc2)C(C)C1OC(=O)CCCCCCCCC(=O)OC1C(C)C(c2ccccc2)NC(c2ccccc2)C1C (stereo not given),128 to 135 °C

row,SMILES,melting point
1,CC=CC=CC(=O)Nc1ccc2ncnc(Nc3cccc(Br)c3)c2c1,258 to 260 °C
2,CO/C=C(/C(=O)OC)c1ccccc1Oc1cc(N)ncn1,158 to 160 °C
3,COc1cc(NC(C)=O)ccc1OCCO,157 to 159 °C
4,CCCC[C@H](NC(=O)[C@H](CC(C)C)NC(=O)C1CCN(C(C)=O)CC1)C(=O)CSCc1ccco1,110 to 112 °C
5,COc1cc(C(=O)O)c(OC)cc1C,120 °C
6,CCOC(=O)c1c(C)nn2c(-c3ccc(Cl)cc3Cl)c(C)ccc12,120 to 124 °C
7,CCCCc1oc2ccc([N+](=O)[O-])cc2c1C(=O)c1ccc(OCCCCCBr)cc1,55 °C
8,COc1cc2c(cn1)CC(CC(=O)O)C=C2 (stereo not given),151 to 152 °C
9,O=c1[nH]c2cc(Cl)ccc2c(O)c1-c1cccc(Br)c1,358 °C
10,Cc1cccc(-c2n[nH]cc2-c2ccc(F)c(-c3ccc(N4CCN(C)CC4)nc3)c2)n1,86 °C
11,CCCCCCS(=O)(=O)c1c(Br)cc(N)cc1Br,192 to 194 °C
12,CC(=O)OC1CC(=O)C2(C)CCC3C(CCC4CC(=O)CC(C)(O)C43C)C12 (stereo not given),170 °C
13,O=S(=O)(Nc1ccc(Oc2ccc3cccnc3c2)cc1)c1ccc(Cl)cc1,208 °C
14,Cc1ccc(Nc2c(F)cccc2C(F)(F)F)c(CC(=O)O)c1,155 to 156 °C
15,CC(C)C(NS(=O)(=O)c1ccc(-c2cccc(CNC(=O)c3nc4ccccc4c(=O)[nH]3)c2)cc1)C(=O)NO (stereo not given),153 to 155 °C
16,O=C(O)c1ccc(OCC(O)c2cc3cc(Cl)ccc3o2)cc1 (stereo not given),157 to 159 °C
17,CC(=O)C(Cl)=NNc1ccc(Cl)cc1,168 to 171 °C
18,CCCCNC(=O)[C@@H](C[C@H](O)[C@H](CC1CCCCC1)NC(=O)[C@H](Cc1cscn1)NC(=O)[C@@H](CC(=O)N1CCOCC1)Cc1ccccc1)C(C)C,161 to 163 °C
19,CCCCC[C@@H](CNC(=O)Nc1c(N(C)C)ncnc1N(C)C)c1cccc2c1OCO2,151 to 152 °C
20,CCOC(=O)c1csc(S)n1,120 to 121 °C
21,Cc1cc(C(=O)N2Cc3cccn3Cc3ccccc32)ccc1C1=CCC2CC1C2(C)C (stereo not given),139 to 140 °C
22,Cc1cc(-c2cc(C(F)(F)F)[nH]n2)c(F)cc1Cl,159 °C
23,CC(=O)NC1Cc2ccc(C(=O)CCCCCl)cc2C1 (stereo not given),106 to 108 °C
24,CC(=O)N1C(=O)N(c2cc(Cl)cc(Cl)c2)C(=O)[C@]12CNC[C@H]2c1ccc(C#N)cc1 (relative stereo),125 °C
25,CCCCCCCCc1ccc(C=Nc2ccc(C#N)cc2)cc1,32.5 to 32.8 °C

row,SMILES,melting point
1,O=C(c1ccccc1Cl)c1cccnc1Br,76.3 °C
2,O=C(NC12CC3CC(CC(C3)C1)C2)c1cc(O)c(O)c([N+](=O)[O-])c1,207 to 208 °C
3,C=C1CC(COc2ccc3ccc(=O)oc3c2)(c2ccccc2)OC1=O (stereo not given),105 to 106 °C
4,COc1ccc2c(c1)Sc1c(cc(OC)c(OC)c1Br)N2C,135 to 137 °C
5,CCCCCCOc1c(Br)ccc2c(OCCCCCC)c(Br)ccc12,41 to 43 °C
6,CCOC(=O)C1CCC(Sc2ccc(F)cc2)C(=O)C1 (stereo not given),96 to 97 °C
7,COc1ccc2c(c1)Sc1ccccc1C(=O)N2,232 to 234 °C
8,CC(OC(=O)c1ccccc1)C(N)=O (stereo not given),116 to 117 °C
9,CCCCNC(=O)NS(=O)(=O)c1cccc2c1S(=O)(=O)N(C)C2,162 to 164 °C
10,COc1ccc(Br)cc1-c1cc(-c2cccc(Br)c2)no1,156 °C
11,CC(C)C[C@H](NC(=O)OC(C)(C)C)[C@@H](O)c1ncnn1C,144 to 145 °C
12,Nc1cccc2cncc(Br)c12,155 °C
13,CCCCOC(=O)c1cc(=O)c2c(cc(OC)c3ncccc32)[nH]1,212 to 213 °C
14,COc1cc(C(=O)CBr)cc(OC)c1OC,61 to 62 °C
15,O=c1c(Cl)c(OCc2ccc(Cl)cc2)cnn1-c1ccc(Cl)cc1F,167 to 168 °C
16,CCOC(=O)c1cc2c(nc1COc1ccc(C(=O)O)cc1)CCCCC2,135 to 136 °C
17,CC(=O)Nc1cc(-c2ccc(S(C)(=O)=O)cc2)c(-c2ccc(F)cc2)s1,80 to 92 °C
18,CN(C)C(=O)NCCc1cccc(-c2nc(=O)c3ccccc3s2)n1,190 to 191 °C
19,OCC1Cc2c([nH]c3ccccc23)CN1 (stereo not given),191 to 193 °C
20,COc1ccc2[nH]cc(CCCNCC3COc4ccccc4O3)c2c1 (stereo not given),135 to 136 °C
21,COc1cc(OC)nc(NC(=O)N=NS(=O)(=O)C2SCC(=O)N2C)n1 (stereo not given),200 to 201 °C
22,COC(=O)c1cccc2c1[nH]c1c3cc(Br)ccc3oc21,204 to 205 °C
23,CC(C)(CBr)c1cc(Cl)nnc1Cl,86.5 to 88.5 °C
24,CC(=O)NC[C@H]1CN(c2ccc(N3CCC(Cc4nnn[nH]4)CC3)c(F)c2)C(=O)O1,164 to 166 °C
25,Cc1c(C#N)cc(C(C)(C)C)c(O)c1C(=O)Nc1ccc(Sc2ccc(Cl)cc2)cc1C(F)(F)F,193 to 195 °C
